What was measured:
[1] = molecular target: T1, Pin1 (Homo sapiens, UniProt Q13526); experiment: Cell-based Pin1 inhibition assay with AMPK phosphorylation level as index (293T cells); parameters: key: +++: a higher level of AMPK phosphorylation is promoted, as compared with C1; ++: a similar level of AMPK phosphorylation is promoted, as compared with C1; +: a lower level of AMPK phosphorylation is promoted, as compared with C1; −: no or almost no promotion is found in AMPK phosphorylation; settings: compound at 100 μM for 30 minutes, then 10 mM 2-DG for one hour, pAMPK blot compared with C1
T1 construct: endogenous in cells; host or cells: 293T cells
T1 sequence (Q13526 whole entry): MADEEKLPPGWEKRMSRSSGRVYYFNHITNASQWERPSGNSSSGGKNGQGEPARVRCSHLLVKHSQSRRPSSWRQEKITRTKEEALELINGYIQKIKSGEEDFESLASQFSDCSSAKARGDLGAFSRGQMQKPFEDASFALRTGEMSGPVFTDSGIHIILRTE
Description: To evaluate the inhibitory activity of each compound synthesized in Example 1 against the function of Pin1, a cell-based assay was performed according to the method previously developed by the inventors (Yusuke Nakatsu et al., Journal of Biological Chemistry, 2015, Vol. 290, No. 40, pp. 24255-24266), in which the phosphorylation level of AMPK (AMP-activated protein kinase), a protein whose phosphorylation is inhibited by Pin1, was examined as an index.
Briefly, 293T cells were plated on a collagen-coated 24-well plate. Forty-eight hours later, each compound synthesized in the preceding example (at 100 μM) was added to the plate, and the plate was left to stand in an incubator for 30 minutes. Subsequently, 10 mM 2-DG was added to the plate, and one hour later, each sample was collected with a buffer containing mercaptoethanol and SDS.
SDS-PAGE and blotting were performed, and blocking was then performed with 3% BSA for 1 hour, according to conventional protocols. Subsequently, a pAMPK antibody (Cell Signaling; diluted 1:2000 in Can Get Signal Solution 1, Toyobo) as a primary antibody, and an HRP-linked anti rabbit IgG (GE Healthcare; diluted 1:4000 in Can Get Signal Solution 2, Toyobo) as a secondary antibody were allowed to react at ambient temperature for 1 hour prior to detection.
The inhibitory activity against the function of Pin1 was evaluated by comparing the inhibition levels between each compound and a known Pin1 inhibitor, C1, as indicated below: […]

[2] = test system: non-alcoholic steatohepatitis (NASH) model mice (HFDT); experiment: NASH treatment study in HFDT-fed NASH model mice; settings: for increase in liver weight / blood ALT (GPT) value, index of liver inflammation: HFDT NASH mice, 8 weeks; for increase in liver weight: FIG. 1 (A); for blood ALT (GPT) value, index of liver inflammation: FIG. 1 (B)
Description: Animal experiments were performed using non-alcoholic steatohepatitis (NASH) model mice to test the compounds according to the present invention for the therapeutic effect on NASH.
NASH model mice (hereinafter referred to as “NASH mice”) were produced by feeding a high-fat diet containing trans fatty acids (HFDT) to individual male laboratory mice (C57BL/6J) for 8 weeks. […] In addition, a normal diet was given to individual male laboratory mice (C57BL/6J) for 8 weeks to prepare control mice.

[3] = test system: DU145 cells; experiment: Cancer treatment study, DU145 tumors implanted in nude mice; type: in vivo, nude mice (BALB/c-slc-nu/nu mice); settings: intraperitoneal 2.5 mg/kg/day, 5 times a week, 9 weeks, compared to control mice; for tumor size growth, first tumor (tumor volume ratio): FIG. 4 (A); for tumor size growth, second tumor (volume): FIG. 4 (B)
Description: An animal experiment was performed using mice transplanted with cancer cells to test the therapeutic effects of the compounds according to the present invention on cancer.
A first tumor (DU145 cells) with Matrigel plug was implanted in the middle of the upper back of nude mice (BALB/c-slc-nu/nu mice).
Five weeks after the first implantation, a second tumor (DU145 cells) was implanted in the middle of the left and right sides of the back of the nude mice.
No compound was administered to a group of mice to prepare control mice.
The volume of the second tumor was so small and not measurable at the beginning of administration of each compound. Therefore, the result from the second tumor is expressed in volume (mm^3), but not in ratio.

[4] = test system: NASH mice (methionine-choline-deficient diet); experiment: NASH treatment study in MCDD-fed NASH mice, liver sections with Azan staining; type: in vivo, mice (C57BL/6J); settings: NASH mice given a MCDD, 8 weeks; intraperitoneal 2.5 mg/kg/day three times a week; FIG. 3 (C)
Description: Next, an animal experiment was performed on NASH mice that were produced by feeding a methionine-choline-deficient diet (MCDD).

[5] = test system: colon cancer model mice; experiment: Colon cancer model mice (AOM/DSS) treatment study; type: in vivo; settings: oral 1.25 mg/kg/day three times a week from Day 6, dissected on Day 89, versus control
Description: Colon cancer model mice were produced by intraperitoneal administration of azoxymethane (AOM) at a dose of 12 mg/kg to laboratory mice on Day 1, and then starting a course consisting of 5-day oral administration of 3% sodium dextran sulfate (DSS) and 16-day no DSS administration, on Day 6, and repeating the course 4 times, to induce colon inflammation and subsequent cancer development.
On Day 89, the colon cancer model mice were dissected to count the number of developed colon cancer tissues and to measure tumor area occupied by a single colon cancer tissue (total tumor area/tumor tissue number).

[6] = test system: mice with induction of colitis; settings: oral administration; cited from earlier work
[7] = intraperitoneal 2.5 mg/kg/day or oral 5.0 mg/kg/day, three times a week

Pin1 inhibition activity [1]	Structure (SMILES)	also measured
++	O=C(O)[C@@H](Cc1ccc2ccccc2c1)NC(=O)N1c2ccccc2Oc2ccccc21 [Compound H-162]	
+++	O=C(N[C@H](Cc1ccc2ccccc2c1)C(=O)O)C1c2ccccc2-c2ccccc21 [Compound H-109]	
++	O=C(O)[C@@H](Cc1ccc2ccccc2c1)NC(=O)N(c1ccccc1)c1ccccc1 [Compound H-161]	
+++	O=C(CC1c2ccccc2-c2ccccc21)N[C@H](Cc1ccc2ccccc2c1)C(=O)O [Compound H-103]	
−	O=C(N[C@H](Cc1ccc2ccccc2c1)C(=O)OCc1ccccc1)C1c2ccccc2-c2ccccc21 [Compound H-105]	
	COC(=O)[C@@H](Cc1ccc2ccccc2c1)NC(=O)n1c2ccccc2c2ccccc21 [Compound H-144]	increase in liver weight [2, 7]: significantly reduced; blood ALT (GPT) value, index of liver inflammation [2, 7]: decreased; tumor size growth, first tumor (tumor volume ratio) [3]: suppressed; tumor size growth, second tumor (volume) [3]: suppressed
+	O=C(O)[C@@H](Cc1ccc2ccccc2c1)NC(=O)N1c2ccccc2C=Cc2ccccc21 [Compound H-164]	
++	O=C(Cc1ccc2ccccc2c1)N[C@H](Cc1ccc2ccccc2c1)C(=O)O [Compound H-158]	
++	O=C(O)[C@@H](Cc1ccc2ccccc2c1)NC(=O)n1c2ccccc2c2ccccc21 [Compound H-163]	increase in liver weight [2, 7]: significantly reduced; blood ALT (GPT) value, index of liver inflammation [2, 7]: decreased; fat accumulation in liver tissue (microscopic observation) ([2]; NASH mice given a HFDT, FIG. 2 (C)): significantly reduced fat accumulation; fat accumulation in liver tissue (microscopic observation) [4]: significantly reduced fat accumulation; hepatic fibrosis (Azan staining) [4]: significantly inhibited; tumor size growth, first tumor (tumor volume ratio) [3]: suppressed; tumor size growth, second tumor (volume) [3]: suppressed; number of colon cancer tissues [5]: no significant difference; tumor area occupied by a single colon cancer tissue ([5]; FIG. 5): reduction in tumor area
+	COC(=O)[C@@H](Cc1ccc2ccccc2c1)NC(=O)Cn1c2ccccc2c2ccccc21 [Compound H-521]	
+	O=C(Cn1c2ccccc2c2ccccc21)N[C@H](Cc1ccc2ccccc2c1)C(=O)O [Compound H-536]	
+++	O=C(Nc1ccccc1Oc1ccccc1)N[C@H](Cc1ccc2ccccc2c1)C(=O)O [Compound H-334]	
	O=C1C=CC(=O)c2c(O)cccc21 [Juglone, reference compound]	increase in liver weight ([2]; oral 5.0 mg/kg/day three times a week): significantly reduced; colitis development [6]: prevention of colitis development
+++	O=C(O)[C@@H](Cc1ccc2ccccc2c1)NC(=O)N1c2ccccc2CCc2ccccc21 [Compound H-178]	
++	O=C(Nc1ccc(C(=O)c2ccccc2)cc1)N[C@H](Cc1ccc2ccccc2c1)C(=O)O [Compound H-341]	
−	O=C(N[C@H](Cc1ccc2ccccc2c1)C(=O)O)OCc1ccccc1 [Compound H-65, reference compound]	
+	COC(=O)c1ccc2cc(C(=O)N[C@H](Cc3ccc4ccccc4c3)C(=O)O)ccc2c1 [Compound H-62]	
	COc1ccc(-c2cc(C(=O)N[C@H](Cc3ccc4ccccc4c3)C(=O)O)c(C)o2)cc1 [Compound C1, (R)-2-(5-(4-methoxyphenyl)-2-methylfuran-3-carboxamido)-3-(naphthalene-6-yl)propanoic acid]	colitis development [6]: prevention of colitis development

Structure (SMILES)	Pin1 inhibition activity [1]	also measured
O=C(O)[C@@H](Cc1ccc2ccccc2c1)NC(=O)C1(O)c2ccccc2-c2ccccc21 [Compound H-101]	++	

From patent US11504379B2, “Amide compound, and Pin1 inhibitor, therapeutic agent for inflammatory diseases and therapeutic agent for cancer that use the same” (Hiroshima University, priority 2017, dated 2022)
